Here are results for one compound from patent US10100088B2, “Glycopeptide derivatives for the preservation and protection of biological materials and microorganisms” (TFCHEM, priority 2014, dated 2018).

SMILES strings stand for the structures. Like-named read-outs stand apart in the source and are kept apart here.

Data set [1] deals with human neonatal skin fibroblasts. The settings on record: for Lysis following bacterial stress at 48 h (OD490 nm): LDH release. As for the experimental part: The medium was changed every two days by 37° C. preheated fresh medium.
The subject of data set [2] is human neonatal skin fibroblasts (CCD-27SK, ATCC CRL-1475). The experiment in a line: Starvation (serum deprivation) stress, neutral red uptake viability. It counts as cell-based. The method, then:
Induced stresses were performed as follow: Starvation
The neutral red uptake assay was used for the determination of cell viability. This assay is based on the ability of viable cells to incorporate and bind the supravital dye neutral red in its lysosomes. So, only the viable cells are dyed. At different times after the stress assay (T0), the plates were incubated with neutral red solution for 3.5 hours. The cells are subsequently washed, the dye is extracted in each well and the absorbance is read using a spectrophotometer.
For sampling, 1 mL of DMEM (without phenol red indicator) with neutral red (OD=0.110) was added to the cells for 3.5 hours (37° C., 10% CO2). After incubation, the medium was removed, two washes of PBS were realized and 1 mL of extraction solution (absolute ethanol 49%, ultrapure water 49%, glacial acetic acid 2%) was added. Plates were placed 15 minutes on rotary shaker in the dark before reading OD at 540 nm.
The OD540 nm average value of positive control was considered as 100% of viability.
The percentage of viability for each assay was calculated as follow: % viability assay=(OD540 nm of tested solution−blank)*100/(OD540 nm of positive control−blank).

On to `C[C@H](NC(=O)[C@H](C)NC(=O)[C@@H](N)CCCCNCC(F)(F)C1(O)O[C@H](CO)[C@H](O)[C@H](O)[C@H]1O)C(=O)O.Cl.Cl` (stereo partly drawn) [Compound 17], for which the “Lysis following bacterial stress at 48 h (OD490 nm)” value in data set [1] (5 mg/mL) amounted to 0.333 ± 0.003 OD490 nm; in data set [1] (10 mg/mL), 0.293 ± 0.002 OD490 nm; in data set [1] (15 mg/mL) it was 0.270 ± 0.005 OD490 nm. Moreover, the “protective effect against bacterial stress (in words)” value in data set [1] (5 mg/ml to 15 mg/ml) is on record as “protective effect on cells against bacterial stress”. Besides, the Percentage of viability was 75% in data set [2] (D 1 after serum deprivation, 5 mg/mL (Table 2)); 71% in data set [2] (D 1 after serum deprivation, 10 mg/mL (Table 2)); 54% in data set [2] (D 4 after serum deprivation, 5 mg/mL (Table 2)); 61% in data set [2] (D 4 after serum deprivation, 10 mg/mL (Table 2)); 116% in data set [2] (D4 after serum deprivation, 10 mg/mL (Table 4)); 45% in data set [2] (D 7 after serum deprivation, 5 mg/mL (Table 2)). Besides, in data set [2] (D 7 after serum deprivation, 10 mg/mL (Table 2)), the Percentage of viability worked out at 55%. The “preservative/protective effect on skin fibroblasts (in words)” value in data set [2] (starvation medium) was “significant preservative/protective effect”.
